Reference: patent US8178501B2, “Antibiotic combinations for providing total solution to the treatment of infections” (priority 2004, dated 2012)
Counter-ions that a name gives are not always drawn.

Tests used:
Experiment in all cases: Bacterial Susceptibility Test, zone size
Format in all cases: cell-based
[1] = tested on: E. coli
Protocol: (§1) The combination of amikacin and cefepime on different microorganisms was taken to analyze the efficiency of combination in comparison with the individual components of the drug. Different concentrations were selected mentioned to as highest, high, low and lowest in the data. Zone size was determined in mm.

[2] = tested on: Enterococcus faecalis
Protocol: as §1

[3] = tested on: Klebsiella pneumoniae
Protocol: as §1

[4] = tested on: Pseudomonas auriginosa
Protocol: as §1

[5] = tested on: Staphylococcus aureus
Protocol: as §1

[6] = tested on: Streptococcus pneumoniae
Protocol: as §1

SMILES | Zone ([1]; concentration High) [mm] | Zone ([1]; concentration Highest) [mm] | Zone ([1]; concentration Low) [mm] | Zone ([1]; concentration Lowest) [mm] | Zone ([2]; concentration High) [mm] | Zone ([2]; concentration Highest) [mm] | Zone ([2]; concentration Low) [mm] | Zone ([2]; concentration Lowest) [mm] | Zone ([3]; concentration High) [mm] | Zone ([3]; concentration Highest) [mm] | Zone ([3]; concentration Low) [mm] | Zone ([3]; concentration Lowest) [mm] | Zone ([4]; concentration High) [mm] | Zone ([4]; concentration Highest) [mm] | Zone ([4]; concentration Low) [mm] | Zone ([4]; concentration Lowest) [mm] | Zone ([5]; concentration High) [mm] | Zone ([5]; concentration Highest) [mm] | Zone ([5]; concentration Low) [mm] | Zone ([5]; concentration Lowest) [mm] | also measured
NCC[C@H](O)C(=O)N[C@@H]1C[C@H](N)[C@@H](O[C@H]2O[C@H](CN)[C@@H](O)[C@H](O)[C@H]2O)[C@H](O)[C@H]1O[C@H]1O[C@H](CO)[C@@H](O)[C@H](N)[C@H]1O [Amikacin, D-Streptamine, O-3-amino-3-deoxy-α-d-glucopyranosyl)1→6)-O-[6-amino-6-deoxy-α-D-glucopyranosyl(1→4)]-N^1-(4-amino-2-hydroxy-1-oxobutyl)-2-deoxy-,(S)-,sulfate (1:2)(salt)] | 29.02 | 30.90 | 22.06 | 15.02 | 23.24 | 27.29 | 17.97 | 08.05 | 31.25 | 34.98 | 31.02 | 29.98 | 21.81 | 26.93 | 16.05 | 09.81 | 24.42 | 28.92 | 18.79 | 10.09 | Zone ([6]; concentration High): 24.28 mm; Zone ([6]; concentration Highest): 26.58 mm; Zone ([6]; concentration Low): 18.34 mm; Zone ([6]; concentration Lowest): 12.32 mm
CO/N=C(\C(=O)N[C@@H]1C(=O)N2C(C(=O)O)=C(C[N+]3(C)CCCC3)CS[C@H]12)c1csc(N)n1.Cl.O.[Cl-] [Cefepime, 1-[[(6R,7R)-7-[2-(2-amino-4-thiazolyl)-glyoxylamido]-2-carboxy-8-oxo-5-thia-1-azabicyclo[4.2.0]oct-2-en-3-yl]methyl]-1-methyl-pyrrolidinium chloride, 7^2-(Z)-(O-methyloxime), monohydrochloride, monohydrate] | 30.16 | 32.24 | 24.20 | 16.42 | 25.52 | 28.98 | 19.92 | 12.65 | 32.35 | 36.02 | 31.96 | 30.83 | 27.56 | 30.94 | 18.81 | 12.08 | 28.44 | 31.06 | 21.18 | 16.24 | Zone ([6]; concentration High): 28.10 mm; Zone ([6]; concentration Highest): 30.32 mm; Zone ([6]; concentration Low): 23.02 mm; Zone ([6]; concentration Lowest): 19.54 mm
